Data taken from patent publication US9173425B2, “High-potency sweetener composition with vitamin and compositions sweetened therewith” (THE COCA-COLA COMPANY, priority 2005, dated 2015).

Tests used:
[1] = test system: panel of experts in the sensory evaluation of foods and beverages; experiment: Sensory evaluation of sweetness linger and sugar-like taste by expert panel; format: in vivo, human; set-up: key: 0=no sweetness linger; 1=very slight sweetness linger; 2=slight sweetness linger; 3=moderate sweetness linger; 4=moderately high sweetness linger; 5=high sweetness linger; settings: for Sweetness Linger rating defined by protocol: scale anchors: sucrose, 500 ppm of REBA control sample
Description: Sensory evaluation of the samples prepared in Example Set G was carried out under the following protocol, similar to that described hereinabove. In this test protocol, none of the samples were swallowed. All samples were expectorated and the mouth was rinsed with water after the tasting. Immediately upon sensing maximal sweetness, the sample was expectorated, the mouth was rinsed with water and the rate of sweetness decay (“Sweetness Linger”) was measured, where attention was focused on the sweetness 3-4 min after the water rinse. After sample tasting was complete, a salty oyster cracker was chewed followed by a water rinse, and at least 5 minutes followed before tasting the next sample. The sweetness linger was rated by a panel of experts in the sensory evaluation of foods and beverages using the following scale: 0=no sweetness linger, 1=very slight sweetness linger, 2=slight sweetness linger, 3=moderate sweetness linger, 4=moderately high sweetness linger, 5=high sweetness linger.
The “Sweetness Linger” rating for sucrose observed by this protocol is defined as 0. The Sweetness Linger of a 500 ppm of REBA control sample is defined as 5. Experimental samples were tasted by the same protocol, always allowing sufficient time between samples to ensure re-equilibration of the sensory system. Re-tasting of control samples during the course of the experiment was allowed and encouraged.
The comparison taste test was performed between two controls and addition of sweet taste improving additive on the onset and/or sweetness linger.
Sweet taste improving compositions were combined with a REBA solution to determine their effect on sweetness linger. Screening of the initial sample, or further dilutions, allowed identification of concentrations which were just above-threshold, herein defined as “near-threshold concentrations.” The near-threshold additive concentrations, a 6- to 100-fold higher additive concentration (depending on the off-taste intensity), and a mid-level additive concentration (halfway between the near-threshold and higher additive concentration) were evaluated to determine the effect on sweetness linger of a REBA solution. […]
Sensory evaluation using the protocol described in Example Set G then was used to evaluate the sweetness linger of the REBA solutions.

[2] = Sweetness level as sucrose equivalent
[3] = Moisture content of rebaudioside A polymorphs; format: physicochemical
Excerpt: (§1) The purification of rebaudioside A by crystallization as described above results in the formation of at least four different polymorphs: Form 1: a rebaudioside A hydrate; Form 2: an anhydrous rebaudioside A; Form 3: a rebaudioside A solvate; and Form 4: an amorphous rebaudioside A. The aqueous organic solution and temperature of the purification process influence the resulting polymorphs in the substantially pure rebaudioside A composition. FIGS. 1-5 are exemplary powder x-ray diffraction (XRPD) scans of polymorphs Form I (hydrate), Form 2 (anhydrate), Form 3A (methanol solvate), Form 3B (ethanol solvate), and Form 4 (amorphous), respectively.

[4] = Alcohol content of rebaudioside A polymorphs; format: physicochemical
Excerpt: as §1

[5] = Rate of dissolution of rebaudioside A polymorphs in H2O at 25° C.; format: physicochemical; settings: result in words
Excerpt: as §1

[6] = format: physicochemical
Description: A solution of rebaudioside A (>97% pure by HPLC) was prepared in double distilled water (12.5 gm in 50 mL, 25% concentration) by stirring the mixture at 40° C. for 5 minutes. An amorphous rebaudioside A polymorph was formed by immediately using the clear solution for spray drying with the Lab-Plant spray drier SD-04 instrument (Lab-Plant Ltd., West Yorkshire, U.K.). The solution was fed through the feed pump into the nozzle atomizer which atomized it into a spray of droplets with the help of a constant flow of nitrogen/air. […] This dry powder (11-12 g, H2O 6.74%) was discharged continuously from the drying chamber and was collected in a bottle.

| Moisture content [3] [%] | Alcohol content [4] | Rate of dissolution in H2O at 25° C. [5] | Compound | Sweetness Linger rating defined by protocol [1] | further results |
| --- | --- | --- | --- | --- | --- |
| <1 | <1% | Intermediate | rebaudioside A [Form 2] | – | – |
| <3 | 1-3% | High | rebaudioside A [Form 3] | – | – |
| 6.74 | – | High | rebaudioside A [Form 4] | – | solubility in water at room temperature [6]: > 35.0% |

Second part, the compound before the results:

| Compound | Moisture content [3] [%] | Alcohol content [4] | Rate of dissolution in H2O at 25° C. [5] | Sweetness Linger rating defined by protocol [1] | further results |
| --- | --- | --- | --- | --- | --- |
| OC[C@H]1O[C@@](CO)(O[C@H]2O[C@H](CO)[C@@H](O)[C@H](O)[C@H]2O)[C@@H](O)[C@@H]1O [sugar, sucrose] | – | – | – | 0 | – |
| rebaudioside A | – | – | – | 5 | sweetness linger rating ([1]; control: 400 ppm REBA in citric acid/potassium citrate composition, no additive): 5; sweetness linger rating ([1]; control: 500 ppm REBA in carbon-treated water, phosphoric acid (75%) pH 2.4-2.5): 5; sucrose equivalence of sweetness ([2]; 180 ppm rebaudioside A in 1:1 diluted beverage): 5 % sucrose; sucrose equivalence of sweetness ([2]; 400 ppm REBA in citric acid/potassium citrate composition): 8 g sucrose |
| rebaudioside A [Form 1] | >5 | <0.5% | Very low | – | – |
